Target: human A2A adenosine receptor (Homo sapiens (Human), UniProt P29274)
Test: A2A binding affinity using SPA, Method (B)
Settings: [3H] SCH58261, A2A receptor-expressing membranes
From the text: Method (A) describes the procedure used to measure A2A binding affinity using radioligand binding. Method (B) describes the procedure used to measure A2A binding affinity using SPA technology. The method used to measure A2B binding affinity is also described below. The method used to determine the A2A IC50 value reported for each compound in the table is indicated next to the reported value. The A2B IC50 value measured using the A2B binding affinity assay is shown in the table next to the compound under the corresponding A2A value.
The A2A receptor affinity binding assay measured the amount of binding of a tritiated ligand with high affinity for the A2A adenosine receptor to membranes made from HEK293 or CHO cells recombinantly expressing the human A2A adenosine receptor, in the presence of varying concentrations of a compound of the invention. The data were generated using either filtration binding or a homogenous scintillation proximity assay (SPA).
Method (B): Measurement of A2A Binding Affinity Using SPA
Binding affinity using SPA was conducted as follows. Test compounds (50 nL) were dispensed into individual wells of a 384-well OptiPlate™ well (Perkin Elmer) by Echo® acoustic liquid transfer (Labcyte). 20 μL of 1.25 nM [^3H] SCH58261 ((7-(2-phenylethyl)-5-amino-2-(2-furyl)-pyrazolo-[4,3-e]-1,2,4-triazolo[1,5-c]pyrimidine)) in DPBS assay buffer (Dulbecco's phosphate buffered saline without calcium and magnesium, ThermoFisher Scientific, Cat. No. A1285601) supplemented with 10 mM MgCl2 was added. A2A receptor-expressing membranes were incubated with 20 μg/mL adenosine deaminase (Roche, Cat. No. 10 102 105 001) for 15 min at room temperature. The receptor-expressing membranes were then combined with wheat germ agglutinin-coated yttrium silicate SPA beads (GE Healthcare, Cat. No. RPNQ0023) in a ratio of 1:1000 (w/w) and incubated for 30 min at room temperature. 30 μL of the membrane/bead mixture (0.25 μg and 25 μg per well respectively) were added to the 384-well OptiPlate™ well. To define total and non-specific binding, wells containing 1% DMSO or 1 μM CGS15943 (Tocris Bioscience, Cat. No. 1699) respectively were also included in the experiment. The plate was incubated for 1 h at room temperature with agitation. The assay plate was then incubated for an h to allow the beads to settle before data were collected using a TopCount® (Perkin Elmer) scintillation counter. After normalization to total and non-specific binding, the percent effect at each compound concentration was calculated. The plot of percent effect versus the log of compound concentration was analyzed electronically using a 4-parameter logistic fit based on the Levenberg-Marquardt algorithm to generate IC50 values.

Chain of human A2A adenosine receptor (P29274 whole entry): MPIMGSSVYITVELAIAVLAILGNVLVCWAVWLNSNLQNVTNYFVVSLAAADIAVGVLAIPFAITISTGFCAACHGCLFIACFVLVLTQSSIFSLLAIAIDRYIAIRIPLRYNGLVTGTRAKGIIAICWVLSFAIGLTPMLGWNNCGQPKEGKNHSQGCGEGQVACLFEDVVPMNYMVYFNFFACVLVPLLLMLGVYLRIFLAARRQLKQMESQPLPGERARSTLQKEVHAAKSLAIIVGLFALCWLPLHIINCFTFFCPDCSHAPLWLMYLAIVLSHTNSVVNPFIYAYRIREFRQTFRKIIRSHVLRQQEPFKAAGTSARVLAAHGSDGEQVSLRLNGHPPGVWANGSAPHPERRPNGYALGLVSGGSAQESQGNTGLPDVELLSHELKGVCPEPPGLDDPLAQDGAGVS

IC50 [nM]	Structure (SMILES)
6.1	CCC#CCOCc1nc2c3cccc(OC)c3nc(N)n2n1 [Example 4.9, 7-methoxy-2-((pent-2-yn-1-yloxy)methyl)-[1,2,4]triazolo[1,5-c]quinazolin-5-amine]
4.4	COc1cccc2c1nc(N)n1nc(COCC(F)F)nc21 [Example 4.10, 2-((2,2-difluoroethoxy)methyl)-7-methoxy-[1,2,4]triazolo[1,5-c]quinazolin-5-amine]
3.5	COc1cccc2c1nc(N)n1nc(COCC(F)(F)F)nc21 [Example 4.11, 7-methoxy-2-((2,2,2-trifluoroethoxy)methyl)-[1,2,4]triazolo[1,5-c]quinazolin-5-amine]
7.2	COc1cccc2c1nc(N)n1nc(COCCF)nc21 [Example 4.12, 2-((2-fluoroethoxy)methyl)-7-methoxy-[1,2,4]triazolo[1,5-c]quinazolin-5-amine]
5.7	COc1cccc2c1nc(N)n1nc(COC(C)C)nc21 [Example 4.13, 2-(isopropoxymethyl)-7-methoxy-[1,2,4]triazolo[1,5-c]quinazolin-5-amine]
